Laboratory results: ChEMBL document CHEMBL4387706, “Discovery of Novel Spiroindoline Derivatives as Selective Tankyrase Inhibitors” (J Med Chem, 2019)
The source made the active and inactive calls. The rule behind the calls is not given here.

How the values were obtained:
[1] = system: COLO 320DM; assay: Antiproliferative activity against human COLO320DM cells assessed inhibition of cell growth measured after 5 days by MTT assay; assay type: functional; details: 120 h
[2] = biological target: T1, Tankyrase 1/2 (Homo sapiens, UniProt Q9H2K2+O95271)
T1 sequence (Q9H2K2 whole entry): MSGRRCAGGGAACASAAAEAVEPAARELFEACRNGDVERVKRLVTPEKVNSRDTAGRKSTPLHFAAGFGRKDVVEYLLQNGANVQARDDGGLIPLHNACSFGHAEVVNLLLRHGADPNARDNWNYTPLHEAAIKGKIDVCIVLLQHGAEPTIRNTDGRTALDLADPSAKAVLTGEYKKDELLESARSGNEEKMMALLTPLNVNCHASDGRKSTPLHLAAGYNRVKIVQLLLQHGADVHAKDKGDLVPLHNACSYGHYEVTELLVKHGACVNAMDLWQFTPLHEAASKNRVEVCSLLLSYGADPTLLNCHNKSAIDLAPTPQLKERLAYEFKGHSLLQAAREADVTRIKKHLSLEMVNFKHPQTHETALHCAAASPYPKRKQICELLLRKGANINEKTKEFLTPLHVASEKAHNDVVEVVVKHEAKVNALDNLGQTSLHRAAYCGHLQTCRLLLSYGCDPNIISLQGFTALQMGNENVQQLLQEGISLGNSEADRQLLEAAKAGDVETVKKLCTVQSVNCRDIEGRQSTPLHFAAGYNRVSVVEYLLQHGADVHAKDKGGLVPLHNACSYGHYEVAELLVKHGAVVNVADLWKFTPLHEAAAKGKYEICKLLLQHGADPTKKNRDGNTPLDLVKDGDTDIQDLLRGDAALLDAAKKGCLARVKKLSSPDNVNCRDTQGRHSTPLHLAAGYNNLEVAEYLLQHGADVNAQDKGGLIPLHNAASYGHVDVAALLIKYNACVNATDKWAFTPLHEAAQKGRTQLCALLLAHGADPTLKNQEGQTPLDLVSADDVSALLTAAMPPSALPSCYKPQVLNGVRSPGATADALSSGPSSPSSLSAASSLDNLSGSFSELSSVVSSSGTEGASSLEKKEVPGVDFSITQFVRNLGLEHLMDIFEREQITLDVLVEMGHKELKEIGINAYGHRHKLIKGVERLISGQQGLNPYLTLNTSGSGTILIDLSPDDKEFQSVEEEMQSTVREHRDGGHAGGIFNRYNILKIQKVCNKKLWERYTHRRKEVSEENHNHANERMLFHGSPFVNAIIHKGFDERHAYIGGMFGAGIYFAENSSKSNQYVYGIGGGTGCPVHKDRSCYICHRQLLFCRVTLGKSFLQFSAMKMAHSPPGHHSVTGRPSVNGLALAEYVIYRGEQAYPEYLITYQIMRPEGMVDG
T1 sequence (O95271 whole entry): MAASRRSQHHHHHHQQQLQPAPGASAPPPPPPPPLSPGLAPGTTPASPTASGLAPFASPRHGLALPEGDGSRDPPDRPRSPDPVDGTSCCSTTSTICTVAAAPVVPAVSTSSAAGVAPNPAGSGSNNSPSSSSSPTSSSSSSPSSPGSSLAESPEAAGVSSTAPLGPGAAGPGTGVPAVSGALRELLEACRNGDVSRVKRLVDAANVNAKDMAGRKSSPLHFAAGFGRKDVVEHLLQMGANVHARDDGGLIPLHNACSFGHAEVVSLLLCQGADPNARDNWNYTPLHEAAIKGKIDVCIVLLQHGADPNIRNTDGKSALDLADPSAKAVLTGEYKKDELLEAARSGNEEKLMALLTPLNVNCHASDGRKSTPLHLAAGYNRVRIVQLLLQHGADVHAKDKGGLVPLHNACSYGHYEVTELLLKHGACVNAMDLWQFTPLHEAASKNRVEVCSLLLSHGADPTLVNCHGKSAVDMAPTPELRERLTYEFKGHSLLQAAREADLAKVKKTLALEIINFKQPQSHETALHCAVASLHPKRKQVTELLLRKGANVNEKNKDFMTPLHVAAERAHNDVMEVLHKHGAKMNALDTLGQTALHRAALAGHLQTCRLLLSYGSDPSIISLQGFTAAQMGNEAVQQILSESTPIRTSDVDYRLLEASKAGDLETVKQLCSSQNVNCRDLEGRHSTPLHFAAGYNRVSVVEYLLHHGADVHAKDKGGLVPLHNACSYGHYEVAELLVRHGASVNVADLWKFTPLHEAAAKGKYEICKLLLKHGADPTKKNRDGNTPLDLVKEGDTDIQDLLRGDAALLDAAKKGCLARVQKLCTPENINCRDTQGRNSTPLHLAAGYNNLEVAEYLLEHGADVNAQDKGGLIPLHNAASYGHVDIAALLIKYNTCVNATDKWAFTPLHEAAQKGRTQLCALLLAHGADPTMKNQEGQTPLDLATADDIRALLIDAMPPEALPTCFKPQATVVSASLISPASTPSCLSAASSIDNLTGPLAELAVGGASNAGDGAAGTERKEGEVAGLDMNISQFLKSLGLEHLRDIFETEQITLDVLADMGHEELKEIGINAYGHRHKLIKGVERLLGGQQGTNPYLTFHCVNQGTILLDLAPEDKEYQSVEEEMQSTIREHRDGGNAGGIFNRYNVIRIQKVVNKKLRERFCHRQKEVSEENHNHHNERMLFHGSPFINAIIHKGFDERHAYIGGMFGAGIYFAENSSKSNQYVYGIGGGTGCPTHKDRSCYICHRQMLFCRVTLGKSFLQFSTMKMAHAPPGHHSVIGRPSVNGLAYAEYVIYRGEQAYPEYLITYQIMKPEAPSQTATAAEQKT
Description: Inhibition of TNKS/TNKS2 (unknown origin) expressed in human DLD1 cells assessed as reduction in Wnt-signaling measured after 24 hrs by TCF-luciferase reporter gene assay

[3] = species: Rattus norvegicus; assay: Displacement of [125I]a-dendrotoxin from voltage-gated potassium channel in Wistar rat cerebral cortex at 10 uM measured after 60 mins by scintillation counting method relative to control
[4] = biological target: Prostaglandin G/H synthase 1 (Homo sapiens) (UniProt P23219); assay: Inhibition of human recombinant COX1 expressed in baculovirus infected Sf9 cells at 10 uM using arachidonic acid as substrate preincubated for 15 mins followed by substrate addition and measured after 3 mins by ampliflu red dye-based spectrofluorimetric method relative to control
Sequence of Prostaglandin G/H synthase 1 (Homo sapiens) (P23219 whole entry): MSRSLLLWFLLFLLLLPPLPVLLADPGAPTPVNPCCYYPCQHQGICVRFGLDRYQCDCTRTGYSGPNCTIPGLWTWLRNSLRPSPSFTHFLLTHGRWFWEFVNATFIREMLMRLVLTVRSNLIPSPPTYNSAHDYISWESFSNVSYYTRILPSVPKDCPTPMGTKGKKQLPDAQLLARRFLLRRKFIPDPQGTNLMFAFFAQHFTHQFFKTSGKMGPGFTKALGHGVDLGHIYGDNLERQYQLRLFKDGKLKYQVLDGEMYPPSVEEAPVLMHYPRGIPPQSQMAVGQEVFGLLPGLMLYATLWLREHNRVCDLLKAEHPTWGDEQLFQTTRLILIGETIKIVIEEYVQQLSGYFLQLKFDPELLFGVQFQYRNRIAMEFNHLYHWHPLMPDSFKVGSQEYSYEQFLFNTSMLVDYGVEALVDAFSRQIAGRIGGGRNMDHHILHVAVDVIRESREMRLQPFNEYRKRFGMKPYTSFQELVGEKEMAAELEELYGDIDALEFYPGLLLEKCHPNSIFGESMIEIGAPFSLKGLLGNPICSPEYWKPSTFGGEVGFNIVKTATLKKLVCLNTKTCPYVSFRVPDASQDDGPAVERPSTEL

[5] = biological target: Alpha-1A adrenergic receptor (Rattus norvegicus) (UniProt P43140); assay: Displacement of [3H]prazosin from alpha1A receptor in Wistar rat submaxillary gland membranes at 10 uM measured after 60 mins by scintillation counting method relative to control; assay type: cell membranes
Sequence of Alpha-1A adrenergic receptor (Rattus norvegicus) (P43140 whole entry): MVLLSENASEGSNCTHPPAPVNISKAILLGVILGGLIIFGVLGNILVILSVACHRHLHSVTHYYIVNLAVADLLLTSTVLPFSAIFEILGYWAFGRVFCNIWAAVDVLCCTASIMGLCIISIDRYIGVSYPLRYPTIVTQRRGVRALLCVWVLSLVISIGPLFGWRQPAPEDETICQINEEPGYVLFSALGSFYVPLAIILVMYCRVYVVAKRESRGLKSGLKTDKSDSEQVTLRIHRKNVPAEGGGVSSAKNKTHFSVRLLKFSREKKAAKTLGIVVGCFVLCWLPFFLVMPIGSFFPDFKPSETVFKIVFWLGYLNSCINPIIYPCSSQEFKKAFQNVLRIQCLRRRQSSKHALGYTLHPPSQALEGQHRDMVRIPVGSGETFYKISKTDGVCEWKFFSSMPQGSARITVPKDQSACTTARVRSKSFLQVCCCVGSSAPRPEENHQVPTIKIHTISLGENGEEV

[6] = Toxicity in mouse xenografted with human COLO320DM cells assessed as body weight loss at 300 mg/kg, ip administered twice daily for 11 days; assay type: organism-based; details: in vivo, 264 h
[7] = system: RKO; assay: Antiproliferative activity against human RKO cells assessed reduction in cell viability at 0.3 uM measured after 5 days by MTT assay; assay type: functional, cell-based
[8] = biological target: Tankyrase 1/2 (Homo sapiens) (UniProt Q9H2K2+O95271); assay: Inhibition of TNKS/TNKS2-mediated beta-catenin signaling in human COLO320DM cells assessed as down regulation of AXIN2 mRNA expression at 0.033 to 1 uM measured after 48 hrs by RT-PCR analysis; assay type: cell-based

COc1ccccc1N1CCN(c2nc3c(c(=O)[nH]2)CCCC3)CC1
GI50 [1]: 1820 nM
IC50 [2]: 233 nM

O=c1[nH]c(N2CCC3(CC2)CN(CCO)c2cc(F)cc(F)c23)nc2c1CCCC2
inhibition [3]: > 20%
inhibition [4]: > 20%
inhibition [5]: > 20%
Activity [6]: Toxic
Activity [7]: Active
inhibition [8]: Active
